Data: patent US20080193576A1, “Antiphlogistic and analgesic composition for topical use in a region of an animal locomotive system” (priority 2007, published 2008)

Assay: tests of the topical composition carried out on persons
Type: in vivo
Conditions: compared as hydrogel-soluble NSAID component at about 2-10% of the composition

SMILES: COC(=O)c1ccccc1O [methyl salicylate]
- efficacy of the non-steroidal anti-inflammatory agent within the inventive composition: most efficacious
